Results from ChEMBL document CHEMBL4715726, “Identification, characterization, kinetics, and molecular docking of flavonoid constituents from Archidendron clypearia (Jack.) Nielsen leaves and twigs” (Bioorg Med Chem, 2016).

Legend:
[1] = molecular target: T1, Bifunctional epoxide hydrolase 2 (Homo sapiens) (UniProt P34913); test: Inhibition of sEH (unknown origin) assessed as reduction in 6-methoxy-2-naphthaldehyde formation at 100 uM using PHOME as substrate measured after 40 mins by fluorescence photometry analysis relative to control
T1 sequence (whole entry): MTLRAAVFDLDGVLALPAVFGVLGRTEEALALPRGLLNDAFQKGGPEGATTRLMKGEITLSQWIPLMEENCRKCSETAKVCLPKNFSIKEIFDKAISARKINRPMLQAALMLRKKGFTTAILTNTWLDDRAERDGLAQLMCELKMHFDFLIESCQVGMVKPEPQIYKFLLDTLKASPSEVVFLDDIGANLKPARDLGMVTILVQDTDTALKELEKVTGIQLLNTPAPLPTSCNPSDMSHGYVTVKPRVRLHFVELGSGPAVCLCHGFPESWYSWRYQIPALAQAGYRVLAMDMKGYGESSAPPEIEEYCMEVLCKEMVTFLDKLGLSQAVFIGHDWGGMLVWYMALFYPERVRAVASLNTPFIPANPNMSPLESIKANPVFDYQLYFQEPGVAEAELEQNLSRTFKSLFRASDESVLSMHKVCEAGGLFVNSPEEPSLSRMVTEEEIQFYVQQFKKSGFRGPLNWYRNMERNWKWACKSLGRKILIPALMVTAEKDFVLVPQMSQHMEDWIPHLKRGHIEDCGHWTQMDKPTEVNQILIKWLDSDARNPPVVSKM

[2] = molecular target: T2, Bifunctional epoxide hydrolase 2 (Homo sapiens, UniProt P34913); test: Mixed type inhibition of sEH (unknown origin) using varying levels of PHOME as substrate by Dixon plot analysis
T2 sequence (P34913 whole entry): T1 sequence (whole entry)

[3] = molecular target: T2, Bifunctional epoxide hydrolase 2; test: Inhibition of sEH (unknown origin) assessed as reduction in 6-methoxy-2-naphthaldehyde formation using PHOME as substrate measured after 40 mins by fluorescence photometry analysis
[4] = molecular target: T2, Bifunctional epoxide hydrolase 2; test: Non competitive inhibition of sEH (unknown origin) using varying levels of PHOME as substrate by Dixon plot analysis
[5] = molecular target: T2, Bifunctional epoxide hydrolase 2; test: Competitive inhibition of sEH (unknown origin) using varying levels of PHOME as substrate by Dixon plot analysis
[6] = molecular target: T1, Bifunctional epoxide hydrolase 2 (Homo sapiens); conditions: dose 25.0 nM, time 40.0 min

Row | Compound | inhibition [1] [%] | IC50 [3] [µM] | further results
1 | COc1cc(O)c(C(=O)/C=C/c2ccc(O)c(OC)c2)c(O[C@@H]2O[C@H](CO)[C@@H](O)[C@H](O)[C@H]2O)c1 | 56.3 | – | –
2 | COc1cc(O)c2c(=O)c(OC)c(-c3ccc(O[C@@H]4O[C@H](CO)[C@@H](O)[C@H](O)[C@H]4O[C@@H]4OC[C@](O)(CO)[C@H]4O)c(OC)c3)oc2c1 | 90.8 | 12 | Ki [4]: 18.2 µM
3 | COc1cc(O)c2c(c1)O[C@H](c1cc(O)c(O[C@@H]3O[C@H](CO)[C@@H](O)[C@H](O)[C@H]3O[C@@H]3OC[C@](O)(CO)[C@H]3O)c(OC)c1)CC2=O | 53.5 | – | –
4 | COc1cc(O)c2c(=O)cc(-c3ccc(O[C@@H]4O[C@H](CO)[C@@H](O)[C@H](O)[C@H]4O[C@@H]4OC[C@](O)(CO)[C@H]4O)c(OC)c3)oc2c1 | 66.1 | – | –
5 | COc1cc(O)c2c(=O)c(O[C@@H]3O[C@H](CO)[C@@H](O)[C@H](O)[C@H]3O)c(-c3ccc(O[C@@H]4O[C@H](CO)[C@@H](O)[C@H](O)[C@H]4O)c(OC)c3)oc2c1 | 95.8 | 19.8 | Ki [5]: 24.6 µM
6 | C[C@@H]1O[C@@H](Oc2c(-c3ccc(O)c(O)c3)oc3cc(O)cc(O)c3c2=O)[C@H](O)[C@H](O)[C@H]1O [QUERCITRIN] | 78.5 | 11.8 | Ki [4]: 39.6 µM
7 | CCCCOC(=O)CCCCCCCCCCCNC(=O)NC12CC3CC(CC(C3)C1)C2 | – | – | inhibition [6]: 58.9%
8 | COc1cc([C@@H](O)CC(=O)c2c(O)cc(O[C@@H]3O[C@H](CO)[C@@H](O)[C@H](O)[C@H]3O[C@@H]3OC[C@](O)(CO)[C@H]3O)cc2O)ccc1O | 50.9 | – | –
9 | O=C(Oc1c(-c2ccc(O)c(O)c2)oc2cc(O)cc(O)c2c1=O)c1cc(O)c(O)c(O)c1 | 91.2 | 11.5 | Ki [4]: 21.5 µM

Second part, led by results:

Row | inhibition [1] [%] | IC50 [3] [µM] | Compound | further results
10 | 64.1 | – | COc1cc(O)c2c(=O)c(O)c(-c3ccc(O[C@@H]4O[C@H](CO)[C@@H](O)[C@H](O)[C@H]4O[C@@H]4OC[C@](O)(CO)[C@H]4O)c(OC)c3)oc2c1 | –
11 | 98.5 | 17.5 | COc1cc(O)c2c(=O)cc(-c3ccc(O[C@@H]4O[C@H](CO)[C@@H](O)[C@H](O)[C@H]4O)c(OC)c3)oc2c1 | Ki [2]: 37.1 µM
12 | 90.8 | 10 | O=C(Oc1cc(O)c2c(c1)O[C@H](c1cc(O)c(O)c(O)c1)CC2)c1cc(O)c(O)c(O)c1 | Ki [2]: 45.5 µM
13 | 33.9 | – | COc1cc([C@@H](O)CC(=O)c2c(O)cc(O[C@@H]3O[C@H](CO)[C@@H](O)[C@H](O)[C@H]3O)cc2O)ccc1O | –
14 | 86.5 | 30.1 | COc1cc(-c2oc3cc(O)cc(O)c3c(=O)c2O[C@@H]2O[C@H](CO)[C@@H](O)[C@H](O)[C@H]2O)ccc1O | Ki [2]: 29.7 µM
